In brackets after ≈: the same amount, converted by molar mass. Like-named read-outs stand apart in the source and are kept apart here.
What was measured:
[1] = system: Bacillus subtilis ATCC6633; experiment: Antibacterial test, agar plate dilution method (MIC); assay type: cell-based; conditions: MH agar, 37°C, 18 hours
Description: (§1) The antibacterial activities were tested by an agar plate dilution method in accordance with the standard method of The Japanese Chemotherapy Society [Chemotherapy, Vol. 29, 76-79 (1981)].
(§2) A Mueller-Hinton (MH) agar liquid medium of a test microorganism was cultured overnight at 37°C and the resultant culture medium was diluted with a buffered saline gelatin (BSG) solution to contain approximately 10⁶ cells of the test microorganisms per milliliter, and then the diluted solution was inoculated with a micro-planter at the rate of approximately 5 microliters on a MH agar medium containing a test compound. This medium was then incubated at 37°C for 18 hours. The minimum inhibitory concentration (MIC) is determined as a minimum concentration in which no test microorganism could grow. It is noted here that the test organisms used were all standard strains.

[2] = system: Enterobacter aerogenes ATCC1304; experiment: as above; assay type: cell-based; conditions: Klebsiella aerogenes
Description: as §1, §2

[3] = system: Enterobacter cloacae 963; experiment: as above; assay type: cell-based; conditions: MH agar, 37°C, 18 hours
Description: as §1, §2

[4] = system: Escherichia coli K12 C600; experiment: as above; assay type: cell-based; conditions: K12C600, MH agar, 37°C, 18 hours
Description: as §1, §2

[5] = system: Escherichia coli NIHJ JC-2; experiment: as above; assay type: cell-based; conditions: NIHJJC2, MH agar, 37°C, 18 hours
Description: as §1, §2

[6] = system: Klebsiella pneumoniae PCI-602; experiment: as above; assay type: cell-based; conditions: PCI602, MH agar, 37°C, 18 hours
Description: as §1, §2

[7] = system: Micrococcus luteus ATCC9341; experiment: as above; assay type: cell-based; conditions: MH agar, 37°C, 18 hours
Description: as §1, §2

[8] = system: Morganella morganii IFO3848; experiment: as above; assay type: cell-based; conditions: MH agar, 37°C, 18 hours
Description: as §1, §2

[9] = system: Proteus mirabilis IFO3849; experiment: as above; assay type: cell-based
Description: as §1, §2

[10] = system: Proteus vulgaris HX-19; experiment: as above; assay type: cell-based; conditions: HX19, MH agar, 37°C, 18 hours
Description: as §1, §2

[11] = system: Proteus vulgaris OX-19; experiment: as above; assay type: cell-based; conditions: OX19, MH agar, 37°C, 18 hours
Description: as §1, §2

[12] = system: Providencia rettgeri IFO 3850; experiment: as above; assay type: cell-based; conditions: IFO3850, MH agar, 37°C, 18 hours
Description: as §1, §2

[13] = system: Pseudomonas aeruginosa IFO 3445; experiment: as above; assay type: cell-based; conditions: IFO3445, MH agar, 37°C, 18 hours
Description: as §1, §2

[14] = system: Pseudomonas aeruginosa NCTC 10490; experiment: as above; assay type: cell-based; conditions: NCTC10490, MH agar, 37°C, 18 hours
Description: as §1, §2

[15] = system: Salmonella enteritidis G14; experiment: as above; assay type: cell-based; conditions: Salmonella enterica
Description: as §1, §2

[16] = system: Salmonella paratyphi 1015; experiment: as above; assay type: cell-based; conditions: Salmonella enterica, MH agar, 37°C, 18 hours
Description: as §1, §2

[17] = system: Salmonella schottmuelleri 8006; experiment: as above; assay type: cell-based; conditions: MH agar, 37°C, 18 hours
Description: as §1, §2

[18] = system: Salmonella typhi 901; experiment: as above; assay type: cell-based; conditions: Salmonella enterica, 18 h
Description: as §1, §2

[19] = system: Salmonella typhimurium IID971; experiment: as above; assay type: cell-based; conditions: Salmonella enterica, MH agar, 37°C, 18 hours
Description: as §1, §2

[20] = system: Serratia marcescens IAM1184; experiment: as above; assay type: cell-based; conditions: MH agar, 37°C, 18 hours
Description: as §1, §2

[21] = system: Staphylococcus aureus FDA 209PJC-1; experiment: as above; assay type: cell-based; conditions: FDA209PJC1, MH agar, 37°C, 18 hours
Description: as §1, §2

[22] = system: Staphylococcus aureus MS353; experiment: as above; assay type: cell-based; conditions: MH agar, 37°C, 18 hours
Description: as §1, §2

[23] = system: Staphylococcus aureus Terajima; experiment: as above; assay type: cell-based; conditions: MH agar, 37°C, 18 hours
Description: as §1, §2

[24] = system: Streptococcus pyogenes Cook; experiment: as above; assay type: cell-based; conditions: MH agar, 37°C, 18 hours
Description: as §1, §2

[25] = system: male mice of CrjCD(SD) strain; experiment: Toxicity study in mice, subcutaneous administration, observation for one week; assay type: in vivo; conditions: 500 mg/kg, subcutaneously
Description: Toxicological studies were carried out using a group of 10 male mice of CrjCD(SD) strain weighing from 20 to 23 grams. A solution containing the carbapenem compound (11) of the present invention obtained by Example 3 was administered subcutaneously to the mice and subjected to observations for one week.

[26] = target: T1, Swine Kidney Dehydropeptidase-I (DHP-I) (Sus scrofa, UniProt P22412); experiment: Hydrolysis activity against DHP-I enzyme substrate by late assay (decrease in absorbency); assay type: biochemical; conditions: final substrate concentration 100µM; 37°C, 10 minutes; pH 7.1
T1 construct: made soluble by treatment with butanol and purified by the ammonium sulfate fraction method, thereby producing DHP-I enzyme; from tissue; host or cells: swine kidney
T1 sequence (P22412 17-384): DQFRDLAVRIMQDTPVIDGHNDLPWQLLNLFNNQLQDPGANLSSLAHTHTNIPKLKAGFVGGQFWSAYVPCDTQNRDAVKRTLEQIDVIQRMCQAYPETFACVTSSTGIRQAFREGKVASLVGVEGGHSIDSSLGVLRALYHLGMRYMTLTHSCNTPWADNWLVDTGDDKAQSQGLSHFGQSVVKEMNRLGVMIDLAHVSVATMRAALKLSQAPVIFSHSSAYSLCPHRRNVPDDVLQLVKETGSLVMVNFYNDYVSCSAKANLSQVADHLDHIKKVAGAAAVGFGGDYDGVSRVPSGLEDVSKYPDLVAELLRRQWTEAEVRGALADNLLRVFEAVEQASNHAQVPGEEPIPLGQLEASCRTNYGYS
Description: The swine kidney (8 kg) was homogenized and the enzyme protein was allowed to precipitate. After a connective lipid was removed with acetone, the resultant material was made soluble by treatment with butanol and purified by the ammonium sulfate fraction method, thereby producing DHP-I enzyme from a 75 % ammonium sulfate fraction. The DHP-I enzyme was then adjusted to give an enzyme concentration of 25 mg/10 ml (phosphate buffer, pH 7.1), and divided into 1 ml portions. The portions were frozen and stored at -40°C or less until use. Glycyl dehydrophenylalanine (Gl-dh-Ph) and imipenem were employed as control compounds, and they were adjusted in situ each to give a concentration of 117µM with the same sodium phosphate buffer solution. […] The solution was then incubated at 37°C for 10 minutes. The initial velocity of hydrolysis of the substrate was measured from a decrease in absorbency at a particular λmax of each of the substrates. A blank test was conducted in substantially the same manner as above by adding 0.2 ml of the sodium phosphate buffer solution (pH 7.1) to 1.2 ml of the above substrate.

[27] = target: T1, Swine Kidney Dehydropeptidase-I (DHP-I); experiment: Stability of test compounds against DHP-I by HPLC; assay type: in vitro ADME; conditions: 37°C, 4.5 hours, Substrate Concentration: 100 µM
Description: The swine kidney (8 kg) was homogenized and the enzyme protein was allowed to precipitate. After a connective lipid was removed with acetone, the resultant material was made soluble by treatment with butanol and purified by the ammonium sulfate fraction method, thereby producing DHP-I enzyme from a 75 % ammonium sulfate fraction. The DHP-I enzyme was then adjusted to give an enzyme concentration of 25 mg/10 ml (phosphate buffer, pH 7.1), and divided into 1 ml portions. The portions were frozen and stored at -40°C or less until use. The test compound was adjusted in situ to give a concentration of 117µM with a 50 mM sodium phosphate buffer solution (pH =7.1). Glycyl dehydrophenylalanine (Gl-dh-Ph) and imipenem were employed as control compounds, and they were adjusted in situ each to give a concentration of 117µM with the same sodium phosphate buffer solution. The test compound according to the present invention and the control compounds were treated in substantially the same manner as (1) above. The incubation, however, was conducted at 37°C for 4.5 hours or for 24 hours. The degree of hydrolysis of the compounds each after the test periods was measured by the HPLC method.

**Q.** What does the source list for `C[C@@H](O)[C@H]1C(=O)N2C(C(=O)[O-])=C(SCCn3cnc[n+]3C)[C@H](C)[C@H]12` [Compound (11), (1R,5S,6S)-6-[(R)-1-hydroxyethyl]-1-methyl-2-[2-(1-methyl-1,2,4-triazolium-2-yl)ethyl]thio-carbapenem-3-carboxylate]?
**A.** MIC [1]: 0.2 µg/mL (≈ 0.568 µM); MIC ([2]; Enterobacter aerogenes ATCC1304, MH agar, 37°C, 18 hours, read-out: MIC): 0.78 µg/mL (≈ 2.21 µM); MIC [3]: 0.1 µg/mL (≈ 0.284 µM); MIC [4]: 0.78 µg/mL (≈ 2.21 µM); MIC [5]: 0.1 µg/mL (≈ 0.284 µM); MIC [6]: 0.2 µg/mL (≈ 0.568 µM); MIC [7]: 0.1 µg/mL (≈ 0.284 µM); MIC [8]: 0.39 µg/mL (≈ 1.11 µM); MIC ([9]; Proteus mirabilis IFO3849, MH agar, 37°C, 18 hours, read-out: MIC): 1.56 µg/mL (≈ 4.43 µM); MIC [10]: 0.78 µg/mL (≈ 2.21 µM); MIC [11]: 0.78 µg/mL (≈ 2.21 µM); MIC [12]: 0.05 µg/mL (≈ 0.142 µM); MIC [13]: 1.56 µg/mL (≈ 4.43 µM); MIC [14]: 0.78 µg/mL (≈ 2.21 µM); MIC ([15]; Salmonella enteritidis G14, MH agar, 37°C, 18 hours, read-out: MIC): 0.78 µg/mL (≈ 2.21 µM); MIC [16]: 0.78 µg/mL (≈ 2.21 µM); MIC [17]: 0.39 µg/mL (≈ 1.11 µM); MIC [18]: 0.05 µg/mL (≈ 0.142 µM); MIC [19]: 0.2 µg/mL (≈ 0.568 µM); MIC [20]: 0.2 µg/mL (≈ 0.568 µM); MIC [21]: 0.1 µg/mL (≈ 0.284 µM); MIC [22]: 0.05 µg/mL (≈ 0.142 µM); MIC [23]: 0.025 µg/mL (≈ 0.0709 µM); MIC [24]: 0.05 µg/mL (≈ 0.142 µM); toxicity: survival and abnormal observations [25]: alive without any abnormal observations

**Q.** Which “initial velocity of hydrolysis” value [26] does the source give for `NCC(=O)NC(=Cc1ccccc1)C(=O)O` [Gl-dh-Ph, Glycyl dehydrophenylalanine] here?
**A.** 17.4 µM/min

**Q.** `C[C@@H](O)[C@H]1C(=O)N2C(C(=O)O)=C(SCCNC=N)C[C@H]12` [Imipenem, imipenem] was tested. Which MIC [1] did it give?
**A.** 0.025 µg/mL (≈ 0.0835 µM)

**Q.** What about the MIC ([2]; ATCC1304, 18 h) of the same molecule?
**A.** 1.56 µg/mL (≈ 5.21 µM)

**Q.** And the MIC [3]?
**A.** 0.78 µg/mL (≈ 2.61 µM)

**Q.** And the MIC [4]?
**A.** 3.13 µg/mL (≈ 10.5 µM)

**Q.** And the MIC [5]?
**A.** 0.1 µg/mL (≈ 0.334 µM)

**Q.** And the MIC [6]?
**A.** 0.2 µg/mL (≈ 0.668 µM)

**Q.** What about the MIC [7] of the same molecule?
**A.** < 0.006 µg/mL

**Q.** What about the MIC [8] of the same molecule?
**A.** 3.13 µg/mL (≈ 10.5 µM)

**Q.** And the MIC ([9]; Proteus mirabilis, IFO3849, 18 h)?
**A.** 6.25 µg/mL (≈ 20.9 µM)

**Q.** And the MIC [10]?
**A.** 3.13 µg/mL (≈ 10.5 µM)

**Q.** And the MIC [11]?
**A.** 3.13 µg/mL (≈ 10.5 µM)

**Q.** And the MIC [12]?
**A.** 0.05 µg/mL (≈ 0.167 µM)

**Q.** And the MIC [13]?
**A.** 0.78 µg/mL (≈ 2.61 µM)

**Q.** And the MIC [14]?
**A.** 0.39 µg/mL (≈ 1.3 µM)

**Q.** And the MIC ([15]; ENTERITIDIS, 18 h)?
**A.** 1.56 µg/mL (≈ 5.21 µM)

**Q.** What about the MIC [16] of the same molecule?
**A.** 1.56 µg/mL (≈ 5.21 µM)

**Q.** And the MIC [17]?
**A.** 0.78 µg/mL (≈ 2.61 µM)

**Q.** And the MIC [18]?
**A.** 0.05 µg/mL (≈ 0.167 µM)

**Q.** What about the MIC [19] of the same molecule?
**A.** 0.2 µg/mL (≈ 0.668 µM)

**Q.** And the MIC [20]?
**A.** 0.2 µg/mL (≈ 0.668 µM)

**Q.** What about the MIC [21] of the same molecule?
**A.** 0.013 µg/mL (≈ 0.0434 µM)

**Q.** What about the MIC [22] of the same molecule?
**A.** 0.013 µg/mL (≈ 0.0434 µM)

**Q.** And the MIC [23]?
**A.** < 0.006 µg/mL

**Q.** And the MIC [24]?
**A.** < 0.006 µg/mL

**Q.** What about the “initial velocity of hydrolysis” value [26] of the same molecule?
**A.** 0.56 µM/min

**Q.** And the “DEGREES OF HYDROLYSIS BY DHP-I” value [27]?
**A.** 77.6 µM
